Values quoted from earlier work, collected in patent publication US20190314449A1, “CYCLIC DIPEPTIDES AND WOUND HEALING” (THE BOARD OF REGENTS OF THE UNIVERSITY OF TEXAS SYSTEM, priority 2016, published 2019).

Key:
heme oxygenase 1 = conditions: neuronal cultures; cited from earlier work
[1] = human, acute oral, 24 mg/dose, cited from earlier work

O=C1NC(Cc2c[nH]cn2)C(=O)N2CCCC12 (centres unmarked) [Cyclo-His-Pro]
heme oxygenase 1 expression via activation of Nrf-2 ARE signaling (heme oxygenase 1): up-regulate heme oxygenase 1
time at which plasma CHP levels peak ([1]; plasma): 4 h
time at which plasma CHP levels return to normal ([1]; plasma): ≤ 24 h
absorption from the gastrointestinal tract [1]: absorbed from the gastrointestinal tract
side effects based on physical and blood chemistry examinations [1]: No side effects
